This passage reports IC50 results from patent publication US12275729B2 (Merck Sharp & Dohme LLC, priority 2017, dated 2025).

Broadly, the IC50 is the concentration that gives 50% inhibition.

In experiment [1] the target is T1, IDO1 (Homo sapiens, UniProt P14902). Briefly: IDO1 Cellular Assay in HeLa Cells Stimulated with IFNγ. Type of experiment: cell-based. Particulars: read-out: Hela IC50.
Experiment [2] has as its target T1, IDO1. As to the kind of experiment: IDO1 Human Whole Blood Assay. Particulars: LPS and IFNγ stimulated. Type of experiment: cell-based. On the set-up: Human whole blood was drawn in sodium heparin coated tubes from healthy internal donors; from tissue; host or cells: human whole blood from healthy donors, stimulated with LPS and IFNγ. The procedure: IDO1 Human Whole Blood Assay
Compounds to be tested were serially diluted in ten 3-fold steps in DMSO starting from 10 mM. […] LPS and IFNγ was prepared in RPMI to a 10× of final conc. (1000 ng/mL), final concentration is 100 ng/mL.
Human whole blood was drawn in sodium heparin coated tubes from healthy internal donors. 240 μL of blood was transferred to each of the wells of a v-bottom 96 well plate. 30 μL of compound was transferred from intermediate dilution plate, and incubated for 15 min. 30 μL from stimulants was then transferred to blood and mixed thoroughly.
On day 2 isotope labeled standard of kynurenine and tryptophan was made in water at 1Ox concentration and 30 μL was added to the blood at […] final concentration. The assay plates were centrifuged at 300×G for 10 min with no brake to separate plasma from red blood cells. 60 μL of plasma samples was removed without disturbing red blood cells. Plasma was diluted with RPMI in 1:1 ratio and proteins were precipitated out with two volume of Acetonitrile. The plates were centrifuged at 4000×G for 60 min. 20 μL of supernatant was carefully transferred to a 384 well plate contain 40 μL of 0.1% formic acid in water and analyzed by LC/MS/MS.
LC/MS/MS analyses were performed using Thermo Fisher's LX4-TSQ Quantum Ultra system. This system consists of four Agilent binary high-performance liquid chromatography (HPLC) pumps and a TSQ Quantum Ultra triple quadrupole MS/MS instrument. For each sample, 5 μL were injected onto an Atlantis T3 column (2.1 mm×150 mm, […] particle size) from Waters. The mobile phase gradient pumped at 0.8 mL/min was used to elute the analytes from the column at 25° C. […] Mobile phase A consisted of 0.1% formic acid in water. Mobile phase B consisted of 0.1% of formic acid in acetonitrile. Data was acquired in positive mode using a HESI interface. The operational parameters for the TSQ Quantum Ultra instrument were a spray voltage of 4000 V, capillary temperature of 380° C., vaporizer temperature 400° C., shealth gas 60 arbitrary units, Aux gas 20 arbitrary units, tube lens 85 and collision gas 1.2 mTorr. […] The peak area was integrated by Xcalibur Quan software. The ratios between the kynurenine generated in the reaction and 2D6-Kynurenine spiked-in internal standard were used to generate percentage inhibition and IC50 values.

T1 sequence (P14902 whole entry): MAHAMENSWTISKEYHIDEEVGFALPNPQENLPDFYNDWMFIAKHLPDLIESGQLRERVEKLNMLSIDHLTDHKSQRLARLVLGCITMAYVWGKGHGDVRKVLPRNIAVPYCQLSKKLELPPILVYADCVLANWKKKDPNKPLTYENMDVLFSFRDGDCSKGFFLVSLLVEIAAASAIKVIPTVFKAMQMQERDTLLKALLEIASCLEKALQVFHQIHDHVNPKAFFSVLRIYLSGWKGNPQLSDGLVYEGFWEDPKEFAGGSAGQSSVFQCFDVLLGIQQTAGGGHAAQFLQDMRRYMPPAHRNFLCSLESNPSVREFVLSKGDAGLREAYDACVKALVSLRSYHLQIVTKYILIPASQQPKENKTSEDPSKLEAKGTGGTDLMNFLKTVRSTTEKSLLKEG

On to `O=C(Nc1ccc(F)cc1)C1(c2ccc3c(n2)CCCN3c2ccnc(C(F)(F)F)n2)COC1` [Example 393, N-(4-fluorophenyl)-3-(5-(2-(trifluoromethyl)pyrimidin-4-yl)-5,6,7,8-tetrahydro-1,5-naphthyridin-2-yl)oxetane-3-carboxamide], for which the figures for the half-maximal inhibitory concentration (IC50) at IDO1 [1] (about 48 hours) and against IDO1 [2] were 1.6 nM and 131 nM, respectively.
For `O=C(C1CC1)N1CCCc2cc(C3(C(=O)Nc4ccc(F)cc4)CCC3)ccc21` [Example 97, 1-[1-(cyclopropanecarbonyl)-1,2,3,4-tetrahydroquinolin-6-yl]-N-(4-fluorophenyl)cyclobutane-1-carboxamide], in that order: 1.7 nM and 11 nM.
For `CC(C(=O)Nc1ccc(Cl)cc1)c1ccc2c(c1)CC(F)CN2C(=O)c1cccc(Cl)c1` (single isomer, unassigned) [Example 257, 2-(1-(3-chlorobenzoyl)-3-fluoro-1,2,3,4-tetrahydroquinolin-6-yl)-N-(4-chlorophenyl)propanamide], in that order: 1.34 nM and 35 nM.
For `O=C(OC1CC1)N1CCc2cc(C3(C(=O)Nc4ccc(F)cc4)CCC3)ccc21` [Example 270, cyclopropyl 5-{1-[(4-fluorophenyl)carbamoyl]cyclobutyl}-2,3-dihydro-1H-indole-1-carboxylate], in that order: 1.2 nM and 41 nM.
Turning to `CCC(COC)OC(=O)N1CCCc2nc(C(C)NC(=O)c3ccc(F)cc3)ccc21` (centres unmarked) [Example 331, 1-methoxybutan-2-yl 6-(1-(4-fluorobenzamido)ethyl)-3,4-dihydro-1,5-naphthyridine-1(2H)-carboxylate], the IC50 was 2.02 nM on IDO1 [1] and 8 nM against IDO1 [2].
Take `N#Cc1cccc(C(=O)N2CCCc3nc(C4(NC(=O)c5ccc(F)cc5)CC4)ccc32)c1` [Example 175, N-{1-[5-(3-cyanobenzene-1-carbonyl)-5,6,7,8-tetrahydro-1,5-naphthyridin-2-yl]cyclopropyl}-4-fluorobenzamide]: the concentration for half-maximal inhibition (IC50) came out at 4.9 nM on IDO1 [1] (about 48 hours) and 19 nM against IDO1 [2].
`CC(NC(=O)c1ccc(F)cc1)c1ccc2c(n1)CCCN2C(=O)c1ccccc1Cl` (centres unmarked) [Example 141, N-{1-[5-(2-chlorobenzene-1-carbonyl)-5,6,7,8-tetrahydro-1,5-naphthyridin-2-yl]ethyl}-4-fluorobenzamide]: the IC50 on IDO1 [1] (about 48 hours) was 1.7 nM; against IDO1 [2], 26 nM.
Turning to `CC(C)(C(=O)Nc1ccc(Cl)cc1)c1ccc2c(c1)CCCN2C(=O)c1cccc(Cl)c1` [Example 187, 2-[1-(3-chlorobenzene-1-carbonyl)-1,2,3,4-tetrahydroquinolin-6-yl]-N-(4-chlorophenyl)-2-methylpropanamide], the IC50 on IDO1 [1] (about 48 hours) turned out to be 4.5 nM; against IDO1 [2] it was 2040 nM.
For the molecule `C[C@@H](C(=O)Nc1ccc(F)cc1)c1ccc2c(c1)CCCN2C(=O)c1cccc(Cl)c1` (single isomer, unassigned) [Example 53], the IC50 turned out to be 2.2 nM on IDO1 [1] (about 48 hours) and 45 nM at IDO1 [2].
In the same order, the values of `Cc1nccc(N2CCCc3nc(C4(C(=O)Nc5ccc(F)cc5)COC4)ccc32)n1` [Example 395, N-(4-fluorophenyl)-3-(5-(2-methylpyrimidin-4-yl)-5,6,7,8-tetrahydro-1,5-naphthyridin-2-yl)oxetane-3-carboxamide] are 1.23 nM and 26 nM.
Turning to `CC(C(=O)Nc1ccc(F)cc1)c1ccc2c(c1)CCCN2C(=O)c1cc(C(F)F)ccn1` (centres unmarked) [Example 38, 2-{1-[4-(difluoromethyl)pyridine-2-carbonyl]-1,2,3,4-tetrahydroquinolin-6-yl}-N-(4-fluorophenyl)propanamide], the IC50 stood at 5.7 nM at IDO1 [1] (about 48 hours) and 36 nM against IDO1 [2].
Regarding `CC(C(=O)Nc1ccc(F)cc1)c1ccc2c(n1)CCCN2c1ccnc(C2CC2)n1` (centres unmarked) [Example 366, 2-(5-(2-cyclopropylpyrimidin-4-yl)-5,6,7,8-tetrahydro-1,5-naphthyridin-2-yl)-N-(4-fluorophenyl)propanamide], the values for the IC50 on IDO1 [1] and at IDO1 [2] were 3.82 nM and 140 nM, respectively.
In the same order, the values of `CCN(CC)CCOC(=O)N1CCCc2nc(C(C)NC(=O)c3ccc(F)cc3)ccc21` (centres unmarked) [Example 324, 2-(diethylamino)ethyl 6-(1-(4-fluorobenzamido)ethyl)-3,4-dihydro-1,5-naphthyridine-1(2H)-carboxylate] are 3400 nM and 239 nM.
`Cc1nccc(N2CCCc3nc(C4(C(=O)Nc5ccc(F)cc5)CC(O)C4)ccc32)n1` (centres unmarked) [Example 426, 2-(1-((4-fluorophenyl)carbamoyl)-3-hydroxycyclobutyl)-5-(2-methylpyrimidin-4-yl)-5,6,7,8-tetrahydro-1,5-naphthyridin-1-ium 2,2,2-trifluoroacetate]: the IC50 at IDO1 [1] was found to be 71 nM; against IDO1 [2] it was 1000 nM.
As for `CC(NC(=O)c1ccc(F)cc1)c1ccc2c(n1)CCCN2C(=O)c1cc(C(F)F)ccn1` (centres unmarked) [Example 279, N-(1-(5-(4-(difluoromethyl)picolinoyl)-5,6,7,8-tetrahydro-1,5-naphthyridin-2-yl)ethyl)-4-fluorobenzamide], the half-inhibitory concentration (IC50) at IDO1 [1] (about 48 hours) stood at 7.3 nM; against IDO1 [2], 135 nM.
For `CC(NC(=O)c1ccc(F)cc1)c1ccc2c(n1)CCCN2C(=O)c1cc(Cl)cc(Cl)c1` (centres unmarked) [Example 149, N-{1-[5-(3,5-dichlorobenzene-1-carbonyl)-5,6,7,8-tetrahydro-1,5-naphthyridin-2-yl]ethyl}-4-fluorobenzamide], in that order: 3.2 nM and 33 nM.
For `CC(NC(=O)c1ccc(Cl)cc1)c1ccc2c(n1)CCCN2C(=O)C1CC1` (single isomer, unassigned) [Example 125, 4-chloro-N-{1-[5-(cyclopropanecarbonyl)-5,6,7,8-tetrahydro-1,5-naphthyridin-2-yl]ethyl}benzamide], in that order: 8.3 nM and 289 nM.
Turning to `Cc1cc(C)n(COC(=O)N2CCCc3nc(C(C)NC(=O)c4ccc(F)cc4)ccc32)n1` (centres unmarked) [Example 320, (3,5-dimethyl-1H-pyrazol-1-yl)methyl 6-(1-(4-fluorobenzamido)ethyl)-3,4-dihydro-1,5-naphthyridine-1(2H)-carboxylate], the IC50 on IDO1 [1] was determined as 69.2 nM; against IDO1 [2], 1690 nM.
In the same order, the values of `Cc1ncc(N2CCCc3nc(C(C)NC(=O)c4ccc(Cl)cc4)ccc32)s1` (centres unmarked) [Example 356, 4-chloro-N-(1-(5-(2-methylthiazol-5-yl)-5,6,7,8-tetrahydro-1,5-naphthyridin-2-yl)ethyl)benzamide] are 13 nM and 167 nM.
Consider `CC(C(=O)Nc1ccc(Cl)cc1)c1ccc2c(c1)CC(F)CN2C(=O)c1cccc(Cl)c1` (single isomer, unassigned) [Example 259, 2-(1-(3-chlorobenzoyl)-3-fluoro-1,2,3,4-tetrahydroquinolin-6-yl)-N-(4-chlorophenyl)propanamide], for which the 50% inhibitory concentration (IC50) at IDO1 [1] (about 48 hours) came to 2.51 nM; at IDO1 [2], 41 nM.
For the molecule `O=C(Nc1ccc(Cl)cc1)C1(c2ccc3c(n2)CCCN3c2cccc(C3CC3)n2)CCC1` [Example 408, N-(4-chlorophenyl)-1-(5-(6-cyclopropylpyridin-2-yl)-5,6,7,8-tetrahydro-1,5-naphthyridin-2-yl)cyclobutane-1-carboxamide], the IC50 at IDO1 [1] (about 48 hours) was determined as 11.5 nM; on IDO1 [2] it was 2980 nM.
Regarding `C[C@@H](C(=O)Nc1ccc(F)cn1)c1ccc2c(c1)CCCN2C(=O)c1cccc(Cl)c1` (single isomer, unassigned) [Example 55], the concentration for half-maximal inhibition (IC50) came out at 2.4 nM at IDO1 [1] (about 48 hours) and 19 nM against IDO1 [2].
For `C[C@H](C(=O)Nc1ccc(F)cc1)c1ccc2c(c1)CCCN2C(=O)[C@H]1CCCCO1` (single isomer, unassigned) [Example 87], in that order: 2.1 nM and 22 nM.
For `Cc1cccc(N2CCCc3nc(C4(NC(=O)c5ccc(F)cc5)CC4)ccc32)n1` [Example 245, 4-fluoro-N-(1-(5-(6-methylpyridin-2-yl)-5,6,7,8-tetrahydro-1,5-naphthyridin-2-yl)cyclopropyl)benzamide], the half-maximal inhibitory concentration (IC50) is 2.7 nM on IDO1 [1] (about 48 hours) and 2580 nM against IDO1 [2].
In the same order, the values of `CC(NC(=O)c1ccc(F)cc1)c1ccc2c(n1)CCCN2C(=O)c1ccn(C)n1` (centres unmarked) [Example 138, 4-fluoro-N-{1-[5-(1-methyl-1H-pyrazole-3-carbonyl)-5,6,7,8-tetrahydro-1,5-naphthyridin-2-yl]ethyl}benzamide] are 6.3 nM and 67 nM.
